In US20150030583A1, “Methods of Treating Serosal Cancer” (SLOAN KETTERING INSTITUTE FOR CANCER RESEARCH, priority 2011, published 2015):
Counter-ions that a name gives are not always drawn. Like-named read-outs stand apart in the source and are kept apart here.

System: Ovcar3-GTL catenae
Experiment: Ovcar3-GTL catena drug sensitivity / proliferation screen (alamarBlue, 384-well)
[1] = ratio of IC50 day 6 to day 1, Ovcar3-GTL catenae
[2] = read-out: IC50 (μM) Addition on Day 1; Ovcar3-GTL catenae; compound added one day after seeding (cells predominantly lacking a glycocalyx)
[3] = read-out: IC50 (μM) Addition on Day 6; Ovcar3-GTL catenae; compound added six days after seeding (established or substantial glycocalyx)
[4] = read-out: IC50 (μM) No coat, pathway-specific inhibitors; catena cells without glycocalyx coat
[5] = read-out: IC50 (μM) With coat, pathway-specific inhibitors; catena cells with glycocalyx coat
[6] = increased resistance of catena cells with glycocalyx coat versus no coat
[7] = read-out: IC50 (μM) With coat; pathway-specific inhibitors; catena cells with glycocalyx coat
[8] = 24 h, read-out: IC50 (μM) Addition on Day 1, Ovcar3-GTL catenae; compound added one day after seeding (cells predominantly lacking a glycocalyx)
[9] = 144 h, read-out: IC50 (μM) Addition on Day 6, Ovcar3-GTL catenae; compound added six days after seeding (established or substantial glycocalyx)
[10] = LOPAC 1280 HTS; compound at 0.2 μM

IC50 [4] [µM] | IC50 [5] [µM] | SMILES | Fold resistance [6] [fold] | further results
13.4 | > 25 | COc1cc2nccc(Oc3ccc(NC(=O)Nc4cc(C)on4)c(Cl)c3)c2cc1OC [AV-951 (Tivozanib), Tivozanib] | – | –
3.14 | 13.4 | CN(C)C/C=C/C(=O)Nc1cc2c(Nc3ccc(F)c(Cl)c3)ncnc2cc1O[C@H]1CCOC1 [BIBW2992 (Tovok)] | 4 | –
3.14 | 13.4 | CN1CCN(c2ccc3nc(-c4c(N)c5c(F)cccc5[nH]c4=O)[nH]c3c2)CC1 [CHIR-258 (Dovitinib), Dovitinib] | 4 | –
> 25 | > 25 | O=C(NOCC1CC1)c1ccc(F)c(F)c1Nc1ccc(I)cc1Cl [CI-1040 (PD184352)] | – | –
> 25 | – | CCc1cc(Nc2nccc(-c3c(-c4ccc(OC)c(C(=O)Nc5c(F)cccc5F)c4)nc4ccccn34)n2)c(OC)cc1N1CCC(N2CCN(S(C)(=O)=O)CC2)CC1 [GSK1904529A] | – | IC50 [7]: > 25 µM
0.01 | – | Cc1[nH]c2ccccc2c1CCNCc1ccc(/C=C/C(=O)NO)cc1 [LBH-589 (Panobinostat), Panobinostat] | 4 | IC50 [7]: 0.05 µM
> 25 | > 25 | Nc1cccc2c1CN(C1CCC(=O)NC1=O)C2=O (stereo not drawn) [Lenalidomide] | – | –
3.14 | > 25 | COCCNCc1ccc(-c2cc3nccc(Oc4ccc(NC(=S)NC(=O)Cc5ccc(F)cc5)cc4F)c3s2)nc1 [MGCD-265] | >8 | –
> 25 | > 25 | CC1(C)CNc2cc(NC(=O)c3cccnc3NCc3ccncc3)ccc21 [Motesanib Diphosphate (AMG-706), Motesanib Diphosphate] | – | –
3.14 | 13.4 | NCC(=O)Nc1ccc(-n2nc(C(F)(F)F)cc2-c2ccc3c(ccc4ccccc43)c2)cc1 [OSU-03012] | 4 | –
13.4 | 13.4 | CC(=O)c1c(C)c2cnc(Nc3ccc(N4CCNCC4)cn3)nc2n(C2CCCC2)c1=O [PD-0332991] | – | IC50 [8]: 0.6 µM; IC50 [9]: 50 µM; Increase in Resistance Day6/Day 1 [1]: 83 fold
0.78 | 13.4 | C[C@@H](Oc1cc(-c2cnn(C3CCNCC3)c2)cnc1N)c1c(Cl)ccc(F)c1Cl [PF-02341066, Crizotinib] | 16 | IC50 [8]: 0.8 µM; IC50 [9]: 25 µM; Increase in Resistance Day6/Day 1 [1]: 31 fold
> 25 | – | OCCn1cc(-c2cnc3nnn(Cc4ccc5ncccc5c4)c3n2)cn1 [PF-04217903] | – | IC50 [7]: > 25 µM
3.14 | 3.14 | Cc1[nH]c(/C=C2\C(=O)Nc3ccc(S(=O)(=O)Cc4c(Cl)cccc4Cl)cc32)c(C)c1C(=O)N1CCC[C@@H]1CN1CCCC1 [PHA-665752] | 1 | –
> 25 | > 25 | Cc1ccc(Nc2nccc(N(C)c3ccc4c(C)n(C)nc4c3)n2)cc1S(N)(=O)=O [Pazopanib Hydrochloride] | – | –
13.4 | 13.4 | CNC(=O)c1cc(Oc2ccc(NC(=O)Nc3ccc(Cl)c(C(F)(F)F)c3)cc2)ccn1 [Sorafenib Tosylate (Bay 43-9006), Sorafenib Tosylate] | – | –
0.05 | > 25 | Cc1cc(Nc2cc(N3CCN(C)CC3)nc(Sc3ccc(NC(=O)C4CC4)cc3)n2)[nH]n1 [VX-680 (Tozasertib), Tozasertib] | – | –
0.05 | 13.4 | COc1cc2c(Oc3ccc(NC(=O)C4(C(=O)Nc5ccc(F)cc5)CC4)cc3F)ccnc2cc1OCCCN1CCOCC1 [XL880 (GSK1363089EXEL-2880)] | – | –

Second part, the molecule before the results:

SMILES | IC50 [4] [µM] | IC50 [5] [µM] | Fold resistance [6] [fold] | further results
C=CCNC1=C2C[C@@H](C)C[C@H](OC)[C@H](O)[C@@H](C)/C=C(\C)[C@H](OC(N)=O)[C@@H](OC)/C=C\C=C(/C)C(=O)NC(=CC1=O)C2=O [17AAG] | – | – | – | Increase in Resistance Day6/Day 1 [1]: 33 fold; IC50 [2]: 0.012 µM; IC50 [3]: 0.4 µM
C[C@]1(c2nc3c(C(N)=O)cccc3[nH]2)CCCN1 [ABT-888 (Veliparib), Veliparib] | 13.4 | > 25 | – | –
Cc1ccc(C(=O)Nc2ccc(CN3CCN(C)CC3)c(C(F)(F)F)c2)cc1C#Cc1cnc2cccnn12 [AP24534 (Ponatinib), Ponatinib] | – | – | 16 | IC50 (read-out: IC50 (μM) No coat): 0.78 µM; IC50 (read-out: IC50 (μM) With coat): 13.4 µM
CNC(=O)c1cc(Oc2ccc(NC(=O)Nc3ccc(Cl)c(C(F)(F)F)c3)c(F)c2)ccn1 [BAY 73-4506 (Regorafenib), Regorafenib] | 13.4 | 13.4 | – | –
Cn1c(=O)n(-c2ccc(C(C)(C)C#N)cc2)c2c3cc(-c4cnc5ccccc5c4)ccc3ncc21 [BEZ235 (NVP-BEZ235)] | 0.05 | > 25 | – | –
CC[C@@H]1C(=O)N(C)c2cnc(Nc3ccc(C(=O)NC4CCN(C)CC4)cc3OC)nc2N1C1CCCC1 [BI 2536] | – | – | – | IC50 (read-out: IC50 (μM) No coat): < 0.001 µM; IC50 (read-out: IC50 (μM) With coat): 13.4 µM
COC(=O)c1ccc2c(c1)NC(=O)/C2=C(\Nc1ccc(N(C)C(=O)CN2CCN(C)CC2)cc1)c1ccccc1 [BIBF1120 (Vargatef)] | 13.4 | 13.4 | – | –
C/C(=C\c1csc(C)n1)[C@@H]1C[C@@H]2O[C@]2(C)CCC[C@H](C)[C@H](O)[C@@H](C)C(=O)C(C)(C)[C@@H](O)CC(=O)O1 [Epo-B] | – | – | – | Increase in Resistance Day6/Day 1 [1]: 4,000 fold; IC50 [2]: 0.025 µM; IC50 [3]: > 100 µM
CS(=O)(=O)c1ccc(C(=O)Nc2ccc(Cl)c(-c3ccccn3)c2)c(Cl)c1 [GDC-0449 (Vismodegib), Vismodegib] | > 25 | > 25 | – | –
OCCn1cc(-c2ccc3c(c2)CC/C3=N\O)c(-c2ccncc2)n1 [GDC-0879] | > 25 | > 25 | – | –
CS(=O)(=O)N1CCN(Cc2cc3nc(-c4cccc5[nH]ncc45)nc(N4CCOCC4)c3s2)CC1 [GDC-0941] | 3.14 | > 25 | >8 | –
Cn1cc(-c2ccc3nnc(C(F)(F)c4ccc5ncccc5c4)n3n2)cn1 [JNJ-38877605] | 3.14 | – | >8 | IC50 [7]: > 25 µM
O=c1cc(-c2cccc3c2Sc2ccccc2S3)oc(N2CCOCC2)c1 [KU-55933] | 13.4 | 13.4 | – | –
O=C(/C=C/c1ccc(CN(CCO)CCc2c[nH]c3ccccc23)cc1)NO [LAQ824 (NVP-LAQ824, Dacinostat), Dacinostat] | 0.01 | < 0.2 | 16 | IC50 [7]: 0.2 µM
O=c1cc(N2CCOCC2)oc2c(-c3ccccc3)cccc12 [LY294002] | – | – | – | IC50 [8]: 25 µM; IC50 [9]: > 100 µM; Increase in Resistance Day6/Day 1 [1]: 4 fold
NC1(c2ccc(-c3nc4ccn5c(=O)[nH]nc5c4cc3-c3ccccc3)cc2)CCC1 [MK-2206] | 3.14 | 13.4 | 4 | –
Cc1ccc(NC(=O)c2ccc(CN3CCN(C)CC3)cc2)cc1Nc1nc(-c2cccnc2)cs1 [Masitinib (AB1010), Masitinib] | 13.4 | 13.4 | – | –

SMILES | IC50 [4] [µM] | IC50 [5] [µM] | Fold resistance [6] [fold] | further results
CCNC(=O)c1noc(-c2cc(C(C)C)c(O)cc2O)c1-c1ccc(CN2CCOCC2)cc1 [NVP-AUY922] | – | – | 24 | –
O=C(NOC[C@H](O)CO)c1ccc(F)c(F)c1Nc1ccc(I)cc1F [PD0325901] | – | – | – | IC50 (read-out: IC50 (μM) No coat): 0.2 µM; IC50 (read-out: IC50 (μM) With coat): > 25 µM
Oc1cccc(-c2nc(N3CCOCC3)c3oc4ncccc4c3n2)c1 [PI-103] | – | – | 16 | IC50 (read-out: IC50 (μM) No coat): 0.78 µM; IC50 (read-out: IC50 (μM) With coat): 13.4 µM
CCCCCCCCCCCCCCCCCCOP(=O)([O-])OC1CC[N+](C)(C)CC1 [Perifosine] | 3.14 | 13.4 | 4 | –
Cn1cc(C2=C(c3ccc(Cl)cc3Cl)C(=O)NC2=O)c2ccccc21 [SB 216763] | > 25 | > 25 | – | –
Cn1cc(-c2ccc3nnc(Sc4ccc5ncccc5c4)n3n2)cn1 [SGX-523] | 3.14 | > 25 | >8 | –
Cc1[nH]c(/C=C2\C(=O)Nc3ccc(S(=O)(=O)N(C)c4cccc(Cl)c4)cc32)c(C)c1C(=O)N1CCN(C)CC1 [SU11274 (PKI-SU11274)] | 3.14 | > 25 | >8 | –
CCN(CC)CCNC(=O)c1c(C)[nH]c(/C=C2\C(=O)Nc3ccc(F)cc32)c1C [Sunitinib Malate (Sutent), Sunitinib Malate] | 3.14 | 13.4 | 4 | –
COc1cc2c(N3CCN(C(=O)Nc4ccc(OC(C)C)cc4)CC3)ncnc2cc1OCCCN1CCCCC1 [Tandutinib (MLN518), Tandutinib] | 13.4 | 13.4 | – | –
N#CC(=C(/N)Sc1ccccc1N)/C(C#N)=C(\N)Sc1ccccc1N [U0126] | – | – | – | IC50 (read-out: IC50 (μM) No coat): 13.4 µM; IC50 (read-out: IC50 (μM) With coat): > 25 µM
Clc1ccc(Nc2nnc(Cc3ccncc3)c3ccccc23)cc1 [Vatalanib] | > 25 | > 25 | – | –
C[C@@H](N)[C@H]1CC[C@H](C(=O)Nc2ccncc2)CC1 [Y27632] | > 25 | > 25 | – | IC50 [8]: > 100 µM; IC50 [9]: > 100 µM
FC(F)c1nc2ccccc2n1-c1nc(N2CCOCC2)nc(N2CCOCC2)n1 [ZSTK474] | 3.14 | > 25 | >8 | –
CC(C)C[C@H](NC(=O)[C@H](Cc1ccccc1)NC(=O)c1cnccn1)B(O)O [bortezomib] | – | – | – | IC50 [8]: 0.013 µM; IC50 [9]: 0.013 µM
C[C@H]1CCC/C=C/[C@@H]2C[C@H](O)C[C@H]2[C@H](O)/C=C/C(=O)O1 [brefeldin A] | – | – | – | toxicity to catena cells with a glycocalyx coat [10]: exert toxicity
COc1cc2c(c(OC)c1OC)-c1ccc(OC)c(=O)cc1[C@@H](NC(C)=O)CC2 [colchicine] | – | – | – | toxicity to catena cells with a glycocalyx coat [10]: exert toxicity
